Measurements: the OPERA property sets (Mansouri et al. 2018)
Where a SMILES comes first, the peptide text is derived from it. [ ]: non-standard residue; d: D form. ξ: configuration not given here. ξY = NC(Cc1ccc(O)cc1)C(=O)O

Row | SMILES | logP
1 | CCC1CC2C3CCC4=CC(=O)CCC4C3CCC2(C)C1C(=O)CO (stereo not given) | 4.01
2 | CC1=CC(=C2C(=O)c3ccccc3C2=O)C=C(C)N1CCCNC(=O)N(CCCl)N=O | 2.84
3 | CCOCCOCCOC1CCC(NC(=O)NC23CC4CC(CC(C4)C2)C3)CC1 (stereo not given) | 2.9
4 | CCCC(=NOCC)C1=C(O)CC2(CCCCC2C)OC1=O (stereo not given) | 3.9
5 | NC(N)=NCCCNC(=O)[C@@H]1CCCCN1C(=O)[C@@H](CC1CCCCC1)NCC(=O)O | -0.1
6 | COc1ccc(C2Cc3c(cccc3[N+](=O)[O-])N(CCN(C)C)C(=O)C2OC(C)=O)cc1 (stereo not given) | 3.7
7 | CCCCN(CCCC)C1CCc2c(OC)cccc2C1C (stereo not given) | 5.61
8 | Cc1cc(=O)oc2c1ccc1occ(C)c12 | 3.08
9 | CC1(C)OC23CC1CCC2CCCC3(C)O (stereo not given) | 3.57
10 | S=C=NCCCCc1ccccc1 | 4
11 | CCC(C)C(NC(=O)CNC(=O)C1CCCN1C(=O)C(N)Cc1ccc(O)cc1)C(=O)O (stereo not given) (H-YPGI-OH; configuration not given here) | -1.65
12 | COc1cc2c(c(OC)c1OC)-c1ccc(SC)c(=S)cc1C(NC(C)=O)CC2 (stereo not given) | 1.75
13 | OCCCCCNc1ncnc2c1ncn2C1OC(CO)C(O)C1O (stereo not given) | -0.24
14 | O=C(NCCNCC(O)COc1ccc(CCOCCOCC2CC2)cc1)N1CCC(O)CC1 (stereo not given) | 1
15 | Cc1cccc2c1C(=O)N(CCO[N+](=O)[O-])CO2 | 2.54
16 | O=C(NC1CCCCC1)NS(=O)(=O)c1cnccc1NC1CCCCCC1 | 4.59
17 | COCCOC(=O)C1=C(C)NC(C)=C(C(=O)OC(C)C)C1c1cccc2c1OCO2 (stereo not given) | 3.94
18 | O=C(OC1Cc2c(O)cc(O)cc2OC1c1ccc(O)c(O)c1)c1ccc(O)c(O)c1 (stereo not given) | 2.45
19 | NC(Cc1ccc(O)cc1)C(=O)NCC(=O)NCC(=O)O (stereo not drawn) (H-[ξY]-Gly-Gly-OH) | -3.51
20 | O=C1CC=C2C3CC4N(CCC45c4ccccc4N1C25)C/C3=C\CO (stereo not given) | 1.37

Row | SMILES | logP
21 | N#CCCOC1Cc2c(O)cc(O)cc2OC1c1ccc(O)c(O)c1 (stereo not given) | 0.96
22 | COc1ccc(-n2nnnc2N)cc1 | 0.85
23 | CC(=O)OC1CC(OC2C(O)CC(OC3C(O)CC(OC4CCC5(C)C(CCC6C5CC(O)C5(C)C(C7=CC(=O)OC7)CCC65O)C4)OC3C)OC2C)OC(C)C1OC(C)=O (stereo not given) | 2.59
24 | Nc1nnnn1-c1ccccc1Cl | 0.87
25 | CC(C)(C)NCC(O)COc1cccc2c1CCN(C=O)C2 (stereo not given) | 1.3
26 | COc1cc2c(cc1OC)C(C=Cc1ccccc1)=NCC2 | 3.39
27 | Clc1c2ccccc2cc2ccccc12 | 5.27
28 | CC(C)(O)C1CCC2(C)CCCC(=O)C2C1 (stereo not given) | 1.92
29 | Cc1cc2c(nn1)-c1ccccc1C2=O | 1.58
30 | CCCCC(=O)OCC(=O)C1(O)Cc2c(O)c3c(c(O)c2C(OC2CC(N)C(O)C(C)O2)C1)C(=O)c1c(OC)cccc1C3=O (stereo not given) | 2.56
31 | COc1cc(-n2c(C(F)(F)F)nn(C)c2=S)cc(OC)c1OC | 2.04
32 | Cn1c(N)nc2ncc(-c3ccccc3)cc21 | 2.23
33 | Clc1ccc(CNc2ncnc3nc[nH]c23)cc1 | 2.9
34 | Clc1cc2c(cc1Cl)Oc1c(Cl)c(Cl)cc(Cl)c1O2 | 6.2
35 | Cc1ccccc1C=[N+]([O-])C(C)(C)C | 1.5
36 | O=c1cc(-c2ccccc2)oc2c(Cl)cc(Cl)cc12 | 4.76
37 | FC(F)(F)c1ccc(CNc2[nH]cnc3ncnc2-3)cc1 | 3.19
38 | CC(C)C(NC(=O)C(N)Cc1ccc(O)cc1)C(=O)NC(Cc1ccccc1)C(=O)O (stereo not given) | -1.37
39 | Nc1n[n+]([O-])c2ccccc2[n+]1[O-] | -0.3
40 | CNc1ccc(S(=O)(=O)N(C)C)cc1 | 1.43

Row | SMILES | logP
41 | C#CCN(N=O)C(=O)NCCCC(NC(C)=O)C(=O)NCc1ccccc1 (stereo not given) | 1.12
42 | O=C1C(O)N=C(c2ccccc2)c2cc(Cl)ccc2N1CCO (stereo not given) | 1.53
43 | CCC(C)(C)c1ccc(OCC2CN=C(N)O2)cc1 (stereo not given) | 3.69
44 | CCNc1ccncc1S(=O)(=O)NC(=NC#N)NC(C)C | -0.24
45 | CON(C)C(=O)c1cn2c(C)c(C)nc2c2c1CCC(c1ccccc1)O2 (stereo not given) | 3.6
46 | CCCC(=NOCC)C1=C(O)CC(C)(C)OC1=O | 2.56
47 | NC(=O)C(CCCN1CC2CCC(CC2)C1)(c1ccccc1)c1ccccn1 (stereo not given) | 2.88
48 | Cc1oc2cc3oc(=O)ccc3cc2c1C | 2.93
49 | COc1cnc(C2=NC(C)(C(C)C)C(=O)N2)c(C(=O)O)c1 (stereo not given) | 0.61
50 | CC(=O)c1ccc(Cl)cc1O | 2.97
51 | c1nc2nc[nH]c(N3CCCCCC3)c-2n1 | 2.53
52 | CO[C@H]1C=CO[C@@]2(C)Oc3c(C)c(O)c4c(c3C2=O)C2=NC3(CCN(CC(C)C)CC3)NC2=C(NC(=O)C(C)=CC=C[C@H](C)[C@H](O)[C@@H](C)[C@@H](O)[C@@H](C)[C@H](OC(C)=O)[C@@H]1C)C4=O | 4.5
53 | CCOC(=O)C1=C(C)NC(C)=C(C(=O)OC)C1c1ccc(OC)c(OC)c1 (stereo not given) | 3.6
54 | COc1cc2ncnc(Nc3ccc(F)cc3)c2cc1OC | 2.87
55 | CCCCCOc1ccc(NC(=O)OCCN2CCCCC2)cc1 | 5.31
56 | CCCOC(=O)c1cnc2n(c1=O)C(C)CCC2 (stereo not given) | 1.14
57 | CNC(C)Cc1ccc(N)cc1 (stereo not given) | 0.81
58 | COc1cccc(CNc2ncnc3nc[nH]c23)c1 | 2.1
59 | COc1cc(OC)c(Cl)cc1N | 1.45
60 | Cc1nc2c3c(c(C(=O)N(C)C)cn2c1C)CCC(c1ccc(F)cc1)O3 (stereo not given) | 3.5
